Measurements taken from publication PMC12553813, “Converting Escherichia coli isochorismatase YecD into γ-lactamase” (Bioresources and Bioprocessing, 2025).

Tests used:
Assay type in all cases: biochemical
YecD [1] = target: YecD (Escherichia coli, UniProt P0ADI7, W104Y/G134C, form not given); assay: hydrolysis kinetics, chiral HPLC; details: standard assay: 50 mM Tris-HCl pH 8.0, 35 °C, racemic γ-lactam
YecD [2] = target: YecD (Escherichia coli, UniProt P0ADI7, W104F/G134C, form not given); assay: hydrolysis kinetics, chiral HPLC; details: standard assay: 50 mM Tris-HCl pH 8.0, 35 °C, racemic γ-lactam
Sequence of YecD (Escherichia coli, UniProt P0ADI7, W104F/G134C, form not given) (P0ADI7 whole entry W104F/G134C, form open): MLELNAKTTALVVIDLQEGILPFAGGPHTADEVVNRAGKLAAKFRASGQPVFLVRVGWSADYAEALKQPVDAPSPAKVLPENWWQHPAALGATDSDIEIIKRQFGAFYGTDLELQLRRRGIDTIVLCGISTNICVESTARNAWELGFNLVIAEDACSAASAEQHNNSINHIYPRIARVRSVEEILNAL

RutB = target: T1, RutB (Escherichia coli, UniProt P75897); assay: γ-lactamase activity screen, chiral HPLC; details: 50 mM Tris-HCl pH 8.0, 35 °C, 4.6 mM racemic γ-lactam
T1 sequence (P75897 1-230): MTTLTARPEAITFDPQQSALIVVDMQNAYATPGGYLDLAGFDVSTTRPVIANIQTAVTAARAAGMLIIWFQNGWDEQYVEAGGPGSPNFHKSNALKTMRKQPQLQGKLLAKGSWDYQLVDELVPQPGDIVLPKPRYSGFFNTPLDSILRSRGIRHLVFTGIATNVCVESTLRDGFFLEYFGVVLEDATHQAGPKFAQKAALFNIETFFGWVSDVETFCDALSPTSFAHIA

YecD [3] = target: YecD (Escherichia coli, UniProt P0ADI7, F23A/G134C, form not given); assay: hydrolysis kinetics, chiral HPLC; details: standard assay: 50 mM Tris-HCl pH 8.0, 35 °C, racemic γ-lactam
Sequence of YecD (Escherichia coli, UniProt P0ADI7, F23A/G134C, form not given) (P0ADI7 whole entry F23A/G134C, form open): as the sequence (P0ADI7 whole entry W104F/G134C, form open) above, with F23A, F104W counted along it

YecD [4] = target: YecD (Escherichia coli, UniProt P0ADI7, V56A/G134C, form not given); assay: hydrolysis kinetics, chiral HPLC; details: standard assay: 50 mM Tris-HCl pH 8.0, 35 °C, racemic γ-lactam
Sequence of YecD (Escherichia coli, UniProt P0ADI7, V56A/G134C, form not given) (P0ADI7 whole entry V56A/G134C, form open): as the sequence (P0ADI7 whole entry W104F/G134C, form open) above, with V56A, F104W counted along it

YecD [5] = target: YecD (Escherichia coli, UniProt P0ADI7, W104A/G134C, form not given); assay: hydrolysis kinetics, chiral HPLC; details: standard assay: 50 mM Tris-HCl pH 8.0, 35 °C, racemic γ-lactam
Sequence of YecD (Escherichia coli, UniProt P0ADI7, W104A/G134C, form not given) (P0ADI7 whole entry W104A/G134C, form open): as the sequence (P0ADI7 whole entry W104F/G134C, form open) above, with F104A counted along it

YecD [6] = target: YecD (Escherichia coli, UniProt P0ADI7, V56I/W104E/G134C, form not given); assay: hydrolysis kinetics, chiral HPLC; details: standard assay: 50 mM Tris-HCl pH 8.0, 35 °C, racemic γ-lactam
Sequence of YecD (Escherichia coli, UniProt P0ADI7, V56I/W104E/G134C, form not given) (P0ADI7 whole entry V56I/W104E/G134C, form open): as the sequence (P0ADI7 whole entry W104F/G134C, form open) above, with V56I, F104E counted along it

YecD [7] = target: YecD (Escherichia coli, UniProt P0ADI7, G134C, form not given); assay: hydrolysis kinetics, chiral HPLC; details: standard assay: 50 mM Tris-HCl pH 8.0, 35 °C, racemic γ-lactam
Sequence of YecD (Escherichia coli, UniProt P0ADI7, G134C, form not given) (P0ADI7 whole entry G134C, form open): as the sequence (P0ADI7 whole entry W104F/G134C, form open) above, with F104W counted along it

Sequence of YecD (Escherichia coli, UniProt P0ADI7, W104Y/G134C, form not given) (P0ADI7 whole entry W104Y/G134C, form open): as the sequence (P0ADI7 whole entry W104F/G134C, form open) above, with F104Y counted along it

O=C1N[C@@H]2C=C[C@H]1C2 (racemic) [( +) γ-lactam, 2-azabicyclo [2.2.1] hept-5-en-3-one]
Km (YecD [1]): 36 ± 3 mM
Km (YecD [2]): 74 ± 3 mM
γ-lactamase activity screen, chiral HPLC (RutB): Screening for ( +) γ-lactamase activity revealed that only RutB exhibited this catalytic function
Km (YecD [3]): 67 ± 4 mM
Km (YecD [4]): 70 ± 3 mM
Km (YecD [5]): 79 ± 3 mM
Km (YecD [6]): 16 ± 2 mM
Km (YecD [7]): 72 ± 4 mM
